From ChEMBL document CHEMBL1201862, “PubChem BioAssay data set” (2004)
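Five concentrations, 48 hours, 96-well plates. At the GI50, growth is halved.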 Calls of active or inactive are those of the source. Rule as the data show it: active = GI50 up to about 1.1 µM and inactive = higher.

How the values were obtained:
Assay in all cases: NCI tumour cell line growth inhibition, 48 h
IGROV-1 = system: IGROV-1
CAKI-1 = system: CAKI-1
CCRF-CEM = system: CCRF-CEM
SW-620 = system: SW-620
K562 = system: K562
NCI-H226 = system: NCI-H226
UACC-62 = system: UACC-62
NCI-H23 = system: NCI-H23
ACHN = system: ACHN
SN12C = system: SN12C
SNB-75 = system: SNB-75
HCC 2998 = system: HCC 2998
Malme-3M = system: Malme-3M
A498 = system: A498
SK-MEL-28 = system: SK-MEL-28
SF-268 = system: SF-268
PC-3 = system: PC-3
MDA-MB-435 = system: MDA-MB-435
BT-549 = system: BT-549

| SMILES | GI50 (IGROV-1) | GI50 (CAKI-1) | GI50 (CCRF-CEM) | GI50 (SW-620) | GI50 (K562) | GI50 (NCI-H226) | GI50 (UACC-62) | GI50 (NCI-H23) | GI50 (ACHN) | GI50 (SN12C) | GI50 (SNB-75) | GI50 (HCC 2998) | GI50 (Malme-3M) | GI50 (A498) | GI50 (SK-MEL-28) | GI50 (SF-268) | GI50 (PC-3) | GI50 (MDA-MB-435) | GI50 (BT-549) |
| --- | --- | --- | --- | --- | --- | --- | --- | --- | --- | --- | --- | --- | --- | --- | --- | --- | --- | --- | --- |
| CN(N=O)C(=O)NC(CCCCNC(=O)OCc1ccccc1)C(=O)OCc1ccccc1 (stereo not drawn) | > 100 µM (inactive) | 21.4 µM (inactive) | 25 µM (inactive) | 27.6 µM (inactive) | 48.8 µM (inactive) | 42.9 µM (inactive) | 13.7 µM (inactive) | 20.7 µM (inactive) | 17.7 µM (inactive) | 17.6 µM (inactive) | 18.8 µM (inactive) | 23.4 µM (inactive) | 30.5 µM (inactive) | 55.5 µM (inactive) | 25 µM (inactive) | – | – | – | – |
| Oc1c(-c2ccccc2)nc2ccccn12 | > 100 µM (inactive) | > 100 µM (inactive) | > 100 µM (inactive) | > 100 µM (inactive) | > 100 µM (inactive) | > 100 µM (inactive) | > 100 µM (inactive) | > 100 µM (inactive) | > 100 µM (inactive) | > 100 µM (inactive) | > 100 µM (inactive) | > 100 µM (inactive) | > 100 µM (inactive) | > 100 µM (inactive) | > 100 µM (inactive) | > 100 µM (inactive) | – | – | – |
| COC(=O)C1(Cc2ccccc2)Cc2ccccc2C1=O (stereo not drawn) | 72.8 µM (inactive) | 83 µM (inactive) | 35.8 µM (inactive) | 55 µM (inactive) | 35 µM (inactive) | 35.6 µM (inactive) | 67.3 µM (inactive) | 45.8 µM (inactive) | 36.6 µM (inactive) | 35.2 µM (inactive) | 42.7 µM (inactive) | 42.3 µM (inactive) | 16.3 µM (inactive) | – | 65.9 µM (inactive) | 70.8 µM (inactive) | 44.9 µM (inactive) | 22.6 µM (inactive) | – |
| CC1CCCCN1CC(=O)c1ccc2c(c1)Sc1ccccc1O2 (stereo not drawn) | 6.49 µM (inactive) | 17.9 µM (inactive) | 16.5 µM (inactive) | 19.1 µM (inactive) | 30.3 µM (inactive) | 12.9 µM (inactive) | 13.3 µM (inactive) | 15.2 µM (inactive) | 15.3 µM (inactive) | 18.7 µM (inactive) | 11 µM (inactive) | 17.7 µM (inactive) | 13.5 µM (inactive) | 18.8 µM (inactive) | 16.6 µM (inactive) | 18.7 µM (inactive) | 11.8 µM (inactive) | 13.8 µM (inactive) | – |
| CC(=O)/C(=C/N1CC(=O)NC1=S)C(=O)Nc1ccccc1C | > 100 µM (inactive) | > 100 µM (inactive) | – | > 100 µM (inactive) | – | > 10 µM (inactive) | – | > 100 µM (inactive) | > 100 µM (inactive) | > 100 µM (inactive) | > 100 µM (inactive) | > 100 µM (inactive) | – | > 100 µM (inactive) | > 100 µM (inactive) | > 100 µM (inactive) | – | > 100 µM (inactive) | > 100 µM (inactive) |
| Cc1c(O)c(C)c2c(C)cn(C(=O)C(C)(C)C)c2c1C | 21.6 µM (inactive) | – | 19.8 µM (inactive) | 29.5 µM (inactive) | 24 µM (inactive) | 12.1 µM (inactive) | 14.7 µM (inactive) | 15.5 µM (inactive) | 14.2 µM (inactive) | 17.9 µM (inactive) | 0.0201 µM (active) | 31.3 µM (inactive) | – | 16.5 µM (inactive) | 15.3 µM (inactive) | 31.4 µM (inactive) | 21.2 µM (inactive) | 16.5 µM (inactive) | – |
| Oc1ccc(Br)cc1/C=N/c1ccc(/N=C/c2cc(Br)ccc2O)cc1 | > 100 µM (inactive) | > 100 µM (inactive) | > 100 µM (inactive) | > 100 µM (inactive) | > 100 µM (inactive) | > 100 µM (inactive) | – | > 100 µM (inactive) | > 100 µM (inactive) | > 100 µM (inactive) | > 100 µM (inactive) | > 100 µM (inactive) | > 100 µM (inactive) | > 100 µM (inactive) | – | > 100 µM (inactive) | – | – | – |
| B.CC(=O)OC1CN2CCC1CC2 (stereo not drawn) | > 100 µM (inactive) | – | > 100 µM (inactive) | > 100 µM (inactive) | > 100 µM (inactive) | > 100 µM (inactive) | > 100 µM (inactive) | > 100 µM (inactive) | > 100 µM (inactive) | > 100 µM (inactive) | – | > 100 µM (inactive) | > 100 µM (inactive) | > 100 µM (inactive) | > 100 µM (inactive) | > 100 µM (inactive) | > 100 µM (inactive) | > 100 µM (inactive) | – |
| CC(C)(C)OC(=O)N1NC(c2ccccc2)CC1c1ccccc1 (stereo not drawn) | – | 35 µM (inactive) | 19 µM (inactive) | 45 µM (inactive) | 31.7 µM (inactive) | 29.1 µM (inactive) | 20.6 µM (inactive) | 17.4 µM (inactive) | 28.1 µM (inactive) | 45.1 µM (inactive) | 17.1 µM (inactive) | 38.5 µM (inactive) | – | 27.8 µM (inactive) | – | 65.2 µM (inactive) | – | 24.3 µM (inactive) | – |
| CC(C)(C)c1cc2c(O)c(c1)Cc1cc(C(C)(C)C)cc(c1O)Cc1cc(C(C)(C)C)cc(c1O)Cc1cc(C(C)(C)C)cc(c1O)Cc1cc(C(C)(C)C)cc(c1O)Cc1cc(C(C)(C)C)cc(c1O)Cc1cc(C(C)(C)C)cc(c1O)Cc1cc(C(C)(C)C)cc(c1O)C2 | > 50 µM (inactive) | > 50 µM (inactive) | > 50 µM (inactive) | > 50 µM (inactive) | > 50 µM (inactive) | > 50 µM (inactive) | > 50 µM (inactive) | > 50 µM (inactive) | > 50 µM (inactive) | > 50 µM (inactive) | > 50 µM (inactive) | > 50 µM (inactive) | > 50 µM (inactive) | > 50 µM (inactive) | > 50 µM (inactive) | > 50 µM (inactive) | > 50 µM (inactive) | > 50 µM (inactive) | – |
| Cc1cc(OC(=O)NCn2cc(-c3ccccc3)nn2)ccc1Cl | 37.7 µM (inactive) | 83.2 µM (inactive) | 72.8 µM (inactive) | > 100 µM (inactive) | 76.4 µM (inactive) | > 100 µM (inactive) | – | 96.6 µM (inactive) | > 100 µM (inactive) | > 100 µM (inactive) | 29.8 µM (inactive) | 16.3 µM (inactive) | 88.1 µM (inactive) | – | > 100 µM (inactive) | 48.4 µM (inactive) | > 100 µM (inactive) | – | 68.9 µM (inactive) |
| COc1cc(OC)c2c3c(OC)cc(OC)c4c(=O)c(O)c(C[C@@H](C)O)c(c5c(C[C@@H](C)O)c(O)c(=O)c1c25)c43 | 16.6 µM (inactive) | 18.8 µM (inactive) | – | 15.5 µM (inactive) | – | 19.6 µM (inactive) | – | 19 µM (inactive) | 33.4 µM (inactive) | 24.5 µM (inactive) | 14.2 µM (inactive) | 16.3 µM (inactive) | – | 28.8 µM (inactive) | 20.1 µM (inactive) | 18.9 µM (inactive) | – | 16.6 µM (inactive) | 18.7 µM (inactive) |
| c1cc(C2O[C@H]3CCCN3[C@@H]2c2ccncc2)ccn1 (stereo partly drawn) | > 100 µM (inactive) | > 100 µM (inactive) | > 100 µM (inactive) | > 100 µM (inactive) | > 100 µM (inactive) | > 100 µM (inactive) | > 100 µM (inactive) | > 100 µM (inactive) | > 100 µM (inactive) | > 100 µM (inactive) | > 100 µM (inactive) | – | > 100 µM (inactive) | > 100 µM (inactive) | > 100 µM (inactive) | > 100 µM (inactive) | – | – | – |
